Measured values from patent US11629141B2, “Proteasome inhibitors and uses thereof” (CORNELL UNIVERSITY, priority 2015, dated 2023).

How the values were obtained:
[1] = biological target: T1, human immunoproteasome β5i (Homo sapiens, UniProt P28062); assay: IC50 against chymotryptic β5i activity of human immunoproteasome (96-well plate, Ac-ANW-AMC); assay type: biochemical; conditions: for IC50: β5i, substrate Ac-ANW-AMC, read-out: IC50 Hu i-20S (Ac-ANW-AMC)
T1 construct: purchased Boston Biochem Inc
Description: A 96-well-plate assays were used to determine the IC50s against the chymotryptic β5 activities of the proteasomes. Both human constitutive proteasome and immunoproteasome were purchased from Boston Biochem Inc. 1 μL of 100× compound in DMSO at designated concentrations were spotted at the bottom of the wells. DMSO was used as a control. […] The hydrolysis of the substrate over time in each well was monitored at excitation 360 nm, emission 460 nm for 90 minutes. IC50s were estimated by fitting the velocities of hydrolysis against compound concentrations using PRISM. […] SDS (0.02%) was used as activator, and 0.01% BSA was used in the reaction buffer.

[2] = biological target: T2, human constitutive proteasome β5c (Homo sapiens, UniProt P28074); assay: IC50 against chymotryptic β5c activity of human constitutive proteasome (96-well plate, Suc-LLVY-AMC); assay type: biochemical; conditions: for IC50: β5c, substrate Suc-LLVY-AMC, read-out: IC50 Hu c-20S (Suc-LLVY-AMC)
T2 construct: purchased Boston Biochem Inc
Description: A 96-well-plate assays were used to determine the IC50s against the chymotryptic β5 activities of the proteasomes. Both human constitutive proteasome and immunoproteasome were purchased from Boston Biochem Inc. 1 μL of 100× compound in DMSO at designated concentrations were spotted at the bottom of the wells. DMSO was used as a control. Final concentrations of the inhibitors were from 100 μM to 0.098 μM. The hydrolysis of the substrate over time in each well was monitored at excitation 360 nm, emission 460 nm for 90 minutes. IC50s were estimated by fitting the velocities of hydrolysis against compound concentrations using PRISM. […] Suc-LLVY-AMC was used for βc at final concentration of 25 μM, and Ac-ANW-AMC for b5i at final concentration of 15 μM. SDS (0.02%) was used as activator, and 0.01% BSA was used in the reaction buffer.
The foregoing features of these AsnEDA encouraged a further round of SAR studies (Table 5) based on varying the carboxylic acid at the ethylenediamine, the N-cap at the Asn, and the side chain of the Asn, based on PKS21004. All compounds listed in the Table 5 were synthesized as described in Examples 6-77. All final compounds were confirmed by NMR and HRMS. IC50s of all compounds against β5i and β5c (Table 5), β1i, β2i, β1c and β2c were determined following a reported method (Lin et al., “N,C-Capped Dipeptides With Selectivity for Mycobacterial Proteasome Over Human Proteasomes: Role of S3 and S1Binding Pockets,” J Am Chem Soc. 135:9968-9971 (2013), which is hereby incorporated by reference in its entirety). […] The [1,1′-biphenyl]-3-carboxamide of PKS21004 was then modified with the following substituents: 4′-fluoro (PKS21026), 4′-cyano (PKS21028), 4-fluoro (PKS21196), 4,3′-difluoro (PKS21195) and 4,2′-difluoro (PKS21187).

Plasmodium falciparum = assay: Growth of Plasmodium falciparum in red blood cells (SYBR Green, 72 hours); assay type: cell-based; conditions: Erythrocyte, P.f. 3D7, growth in red blood cells, read-out: EC50 (nM) (P.f.)
Description: Continuous in vitro cultures of Plasmodium falciparum: were maintained in human red blood cells (RBC) diluted to a hematocrit of 5% in RPMI 1640 medium with HEPES and Hypoxanthine and completed with 0.5% Albumax II (Invitrogen), 0.25% sodium bicarbonate, and 0.1 mg/ml gentamicin. Parasites were incubated at 37° C. in a gas mixture of 5% oxygen, 5% carbon dioxide, and 90% nitrogen.
Parasite sensitivity to novel compounds were determined using a SYBR Green (Invitrogen S1046) drug assay protocol. P. falciparum of various clinic stains were cultured with compounds at concentrations in a series of dilution in a clear, sterile 96-well plate for 72 hours. Subsequently, 150 μl of the cultures were transferred to a black 96-well plate and placed in the freezer for red blood cell lysis. The plates were thawed and suspended in a Sybr Green Lysis buffer. GraphPad Prism was used to analyze the raw data collected […]. Drug concentrations were converted to logarithms, normalized, and then curve fitted by non-linear regression to obtain EC50 values.
Plasmodium falciparum: parasites were cultured in human red cells. Drug assays were run in 96 well plates at a total volume of 200 μl. Assays were set up at a starting parasitemia (percent of infected red cells) of 0.5%. Test compounds were plated at concentrations of 2778 nM to 0.4 nM. The test plates were grown under standard low oxygen conditions at 37° C. for 72 hours. At that time the plates were prepared for growth determination, first the plates were frozen and thawed to lyse the red blood cells, 150 μl of the lysed thawed culture was transferred to a black 96 well plate, and mixed in a lysis buffer with SYBR green DNA dye. The fluorescence of each well was recorded in a plate reader with excitation wavelength 490 nm and emission wavelength 530 nm and normalized relative to DMSO control. The EC50s were determined using Prism software.

SMILES	IC50 [1] [µM]	IC50 [2] [µM]	EC50 (Plasmodium falciparum) [nM]	improved potency against β5i ([1]; relative to PKS3080) [fold]	selectivity for β5i over β5c [1] [fold]	inhibitory activity against β5i (in words) [1]	inhibitory activity against β5c (in words) [2]
CC(CNC(=O)c1cccc(-c2ccccc2)c1)NC(=O)[C@H](CC(=O)NC(C)(C)C)NC(=O)CCc1ccccc1 (mixture of isomers) [PKS21018]	2.35	14.6	364	–	–	–	–
CC(C)(C)NC(=O)C[C@H](NC(=O)CCc1ccccc1)C(=O)NCCNC(=O)c1cccc2ccccc12 [PKS3080]	0.37	1.22	23	–	–	–	–
CC(C)(C)NC(=O)C[C@H](NC(=O)CCc1ccccc1)C(=O)NCCCNC(=O)c1cccc(-c2ccccc2)c1 [PKS21019]	0.276	3.46	30	–	–	–	–
CC(C)(C)NC(=O)C[C@H](NC(=O)CCc1ccccc1)C(=O)NCCNC(=O)c1ccc2ccccc2c1 [PKS21025]	0.284	3.6	320	3	26	–	–
CC(C)(C)NC(=O)C[C@H](NC(=O)CCc1ccccc1)C(=O)NCCNC(=O)c1cccc(-c2ccc(C#N)cc2)c1 [PKS21028]	2.06	7.25	–	–	–	–	–
CC(C)(C)NC(=O)CC[C@H](NC(=O)CCc1ccccc1)C(=O)NCCNC(=O)c1cccc(-c2ccccc2)c1 [PKS21030]	0.39	0.068	–	–	–	–	–
CC(C)(C)NC(=O)C[C@H](NC(=O)CCc1ccccc1)C(=O)NCCNC(=O)c1cc(-c2ccccc2)ccn1 [PKS21186]	0.125	2.76	–	–	–	–	–
CC(C)(C)NC(=O)C[C@H](NC(=O)CCc1ccccc1)C(=O)NCCNC(=O)c1cc(-c2ccccc2F)ccc1F [PKS21187]	0.016	0.36	–	–	~20	–	–
CC(C)(C)NC(=O)C[C@H](NC(=O)CCc1ccccc1)C(=O)NCCNC(=O)c1cc(-c2cccc(F)c2)ccc1F [PKS21195]	0.059	1.94	–	–	–	–	–
CC(C)(C)NC(=O)C[C@H](NC(=O)CCc1ccccc1)C(=O)NCCNC(=O)c1cc(-c2ccccc2)ccc1F [PKS21196]	0.044	0.818	–	–	–	–	–
Cc1cc(C(=O)N[C@@H](CC(=O)NC(C)(C)C)C(=O)NCCNC(=O)c2cc(-c3ccccc3F)ccc2F)no1 [PKS21208]	0.027	1.04	–	–	–	–	–
Cc1cc(C(=O)N[C@@H](CC(=O)NC(C)(C)C)C(=O)NCCNC(=O)c2cc(-c3cccc(F)c3)ccc2F)no1 [PKS21225]	0.269	11.8	–	–	–	–	–
Cc1ccc(S(=O)(=O)N[C@@H](CC(=O)NC(C)(C)C)C(=O)NCCNC(=O)c2cc(-c3cccc(F)c3)ccc2F)cc1 [PKS21228]	0.012	0.42	–	–	–	–	–
Cc1cc(C(=O)N[C@@H](CC(=O)NC(C)(C)C)C(=O)NCCNC(=O)c2ccccn2)no1 [PKS21250]	65.6	> 100	–	–	–	–	–
Cc1cc(C(=O)N[C@@H](CC(=O)NC(C)(C)C)C(=O)NCCNC(=O)c2ccccc2F)no1 [PKS21251]	6.34	39	–	–	–	–	–
CC(C)(C)NC(=O)C[C@H](NC(=O)CCc1ccc(F)cc1)C(=O)NCCNC(=O)c1ccccn1 [PKS21254]	7.77	57.4	–	–	–	–	–
CC(C)(C)NC(=O)C[C@H](NC(=O)CCc1ccc(F)cc1)C(=O)NCCNC(=O)c1ccccc1F [PKS21255]	0.74	3.64	–	–	–	–	–

SMILES	IC50 [1] [µM]	IC50 [2] [µM]	EC50 (Plasmodium falciparum) [nM]	improved potency against β5i ([1]; relative to PKS3080) [fold]	selectivity for β5i over β5c [1] [fold]	inhibitory activity against β5i (in words) [1]	inhibitory activity against β5c (in words) [2]
CC(C)(C)NC(=O)C[C@H](NC(=O)CCc1ccc(F)cc1)C(=O)NCCNC(=O)c1cccc2cccnc12 [PKS21258]	2.41	22.7	–	–	–	–	–
CC(C)(C)NC(=O)C[C@H](NC(=O)CCc1ccc(F)cc1)C(=O)NCCNC(=O)c1ccc(F)c2ccccc12 [PKS21259]	0.158	2.24	–	–	–	–	–
CC(C)(C)OC(=O)NCC(=O)NCCNC(=O)c1cc(-c2ccccc2F)ccc1F [PKS21276]	24.3	> 100	–	–	–	abolished the inhibitory activities	abolished the inhibitory activities
CC(C)(C)NC(=O)C[C@H](NC(=O)OC(C)(C)C)C(=O)NCCNC(=O)c1cc(-c2ccccc2F)ccc1F [PKS21277]	0.112	3.65	–	–	36	modestly potent	–
O=C(CCc1ccc(F)cc1)N[C@@H](CC(=O)NC1(C(F)(F)F)CC1)C(=O)NCCNC(=O)c1cccc(-c2ccccc2)c1 [PKS21278]	0.08	0.165	–	–	–	–	–
O=C(CCc1ccc(F)cc1)N[C@@H](CC(=O)NC1(C(F)(F)F)CC1)C(=O)NCCNC(=O)c1cc(-c2ccccc2F)ccc1F [PKS21279]	0.037	0.114	–	–	–	–	–
C[C@H](NC(=O)OC(C)(C)C)C(=O)NCCNC(=O)c1cc(-c2ccccc2F)ccc1F [PKS21280]	33.2	> 100	–	–	–	abolished the inhibitory activities	abolished the inhibitory activities
CC(C)(C)OC(=O)N[C@@H](CC(N)=O)C(=O)NCCNC(=O)c1cc(-c2ccccc2F)ccc1F [PKS21281]	> 100	> 100	–	–	–	abolished the inhibitory activities	abolished the inhibitory activities
Cc1ccc(S(=O)(=O)N[C@@H](CC(=O)NC(C)(C)C)C(=O)NCCNC(=O)c2cccc(-c3cc[nH]n3)c2)cc1 [PKS21282]	0.069	1.29	–	–	–	–	–
CC(C)(C)NC(=O)C[C@H](N)C(=O)NCCNC(=O)c1cc(-c2ccccc2F)ccc1F [PKS21284]	0.626	3.09	–	–	–	–	–
Cc1ccc(S(=O)(=O)N[C@@H](CC(N)=O)C(=O)NCCNC(=O)c2cc(-c3ccccc3F)ccc2F)cc1 [PKS21288]	4.14	> 100	–	–	–	eliminated inhibitory activity	eliminated inhibitory activity
Cc1ccc(S(=O)(=O)NCC(=O)NCCNC(=O)c2cc(-c3ccccc3F)ccc2F)cc1 [PKS21289]	40.3	60.8	–	–	–	eliminated inhibitory activity	eliminated inhibitory activity
Cc1ccc(S(=O)(=O)N[C@@H](C)C(=O)NCCNC(=O)c2cc(-c3ccccc3F)ccc2F)cc1 [PKS21290]	> 100	> 100	–	–	–	eliminated inhibitory activity	eliminated inhibitory activity
CC(C)(C)NC(=O)C[C@H](NS(=O)(=O)C1CC1)C(=O)NCCNC(=O)c1cc(-c2ccccc2F)ccc1F [PKS21293]	0.015	0.96	–	–	–	–	–
CC(=O)N[C@@H](CC(=O)NC(C)(C)C)C(=O)NCCNC(=O)c1cc(-c2ccccc2F)ccc1F [PKS21294]	0.62	13.3	–	–	–	–	–
Cc1ccc(S(=O)(=O)N[C@@H](CC(=O)NC(C)(C)C)C(=O)NCCNC(=O)c2cccc(N3CCNC3=O)c2)cc1 [PKS21295]	0.129	2.39	–	–	–	–	–
Cc1cc(C(=O)N[C@@H](CC(=O)NC(C)(C)C)C(=O)NCCNC(=O)c2cccc(-n3cccn3)c2)no1 [TDI4258]	–	–	29	–	–	–	–
